Read-outs that look alike come from different tables or passages of the source. Starred links: 1 amine or outer side, 2 acyl side, 3 side chain; linkers in the order of their positions; H or OH if unused. Positions of bridges follow the written chain, without caps; N, C: chain ends. Non-standard residues stand in square brackets, D forms with d. Residues, ends and D or L forms follow the SMILES beside them. *: point of attachment. Orn(4R-OH,5R-OCH2CH2NMe3+) = C[N+](C)(C)CCO[C@@H](N[*:3])[C@H](O)C[C@H](N[*:1])C(=O)[*:2]; hTyr(3S-OH,4S-OH) = N[C@H](C(=O)O)[C@H](O)[C@@H](O)c1ccc(O)cc1; X2 = CCCCCCc1ccc(-c2ccc(-c3ccc(C(=O)*)cc3)cc2)cc1; X3 = CCCCCNc1ccc(-c2ccc(-c3ccc(C(=O)*)cc3)cc2)cc1; Pro(3S-OH,4S-Me) = C[C@H]1CN[C@H](C(=O)O)[C@H]1O; Hyp = O=C(O)[C@@H]1C[C@@H](O)CN1
Legend:
Format in all cases: cell-based
[1] = test system: Candida albicans ATCC 44858; assay: MIC assay (CLSI M27-A3), Candida albicans ATCC 44858; details: Candida albicans
Method: (§1) After a test compound was serially diluted, an MIC (minimum inhibitory concentration) assay was performed on the standard Candida strain and an MEC (minimum effective concentration) assay on the standard Aspergillus strain. The MIC assay was performed according to the guidelines of the Clinical and Laboratory Standards Institute (CLSI M27-A3) and the MEC assay according to the guidelines of the Clinical and Laboratory Standards Institute (CLSI M38-A2).
(§2) The frozen strain was passaged at least twice, and a single colony was picked and resuspended in normal saline or sterile water in a tube. The suspension was vortexed and adjusted to 0.5 McF (1×10^6 to 5×10^6 CFU/mL) using a spectrophotometer at wavelength 530 nm. The suspension was 50-fold diluted with normal saline and then 20-fold diluted with 1×RPMI 1640 broth (1×10^3 to 5×10^3 CFU/mL). 10 μL of the suspension was applied to an SDA plate for colony counting, with a range from about 10 to 50 single colonies.
(§3) At this time, the bacterium concentration in each well should be 0.5×10^3 to 2.5×10^3 CFU/mL.
(§4) For echinocandin drugs, Aspergillus was incubated at 28° C. for 21-26 h, and then the MEC results were read.
(§5) Yeast-type fungi: A disposable sealing film was applied to the 96-well plate, and the mixture was well mixed by shaking. Observation was performed through a plate reader with the naked eye. Comparisons were made to the growth control, and the minimum compound concentration corresponding to ≥50% growth inhibition was defined as MIC. Pictures were taken and saved using an automatic plate reader.

[2] = test system: Candida tropicalis (amphotericin-resistant strain) ATCC 200956; assay: microbe, parasite or virus in culture; details: Candida tropicalis, ATCC200956, read-out: MIC, Candida tropicalis (amphotericin-resistant strain) ATCC 200956
Method: as §1, §2, §3, §4, §5

[3] = test system: Candida albicans (azole drug-resistant strain) R358; assay: MIC assay (CLSI M27-A3), Candida albicans azole drug-resistant strain R358; details: Candida albicans, read-out: MIC, Candida albicans (azole drug-resistant strain) R358
Method: as §1, §2, §3, §4, §5

[4] = test system: Candida albicans ATCC 90028; assay: MIC assay (CLSI M27-A3), Candida albicans ATCC 90028; details: Candida albicans
Method: as §1, §2
At this time, the bacterium concentration in each well should be 0.5×10^3 to 2.5×10^3 CFU/mL. […]
as §5

[5] = test system: Candida glabrata ATCC 36583; assay: MIC assay (CLSI M27-A3), Candida glabrata ATCC 36583; details: Nakaseomyces glabratus
Method: as §1, §2, §3, §4, §5

[6] = test system: Candida albicans (azole drug-resistant strain) R357; assay: MIC assay (CLSI M27-A3), Candida albicans azole drug-resistant strain R357; details: Candida albicans, read-out: MIC, Candida albicans (azole drug-resistant strain) R357
Method: as §1, §2, §3, §4, §5

[7] = ATCC44858, second batch, read-out: MIC, Candida albicans ATCC 44858
[8] = ATCC90028, second batch, 24 h, 35° C., read-out: MIC, Candida albicans ATCC 90028
[9] = ATCC90028, second batch, + 50% human serum, read-out: MIC, Candida albicans + 50% human serum ATCC 90028
[10] = ATCC36583, second batch, read-out: MIC, Candida glabrata ATCC 36583
[11] = ATCC44858, read-out: MIC, Candida albicans ATCC 44858
[12] = ATCC90028, 24 h, read-out: MIC, Candida albicans ATCC 90028
[13] = ATCC90028, read-out: MIC, Candida albicans + 50% human serum ATCC 90028
[14] = ATCC36583, read-out: MIC, Candida glabrata ATCC 36583

Compound | MIC [1, 7] [µg/mL] | MIC [2] [µg/mL] | MIC ([3]; second batch) [µg/mL] | MIC [4, 8] [µg/mL] | MIC [4, 9] [µg/mL] | MIC [5, 10] [µg/mL] | MIC ([6]; second batch) [µg/mL] | MIC [1, 11] [µg/mL] | MIC [3] [µg/mL] | MIC [4, 12] [µg/mL] | MIC [4, 13] [µg/mL] | MIC [5, 14] [µg/mL] | MIC [6] [µg/mL]
CCCCCOc1ccc(-c2ccc(-c3ccc(C(=O)N[C@H]4C[C@@H](O)[C@@H](OC[C@@H](C)[N+](C)(C)C)NC(=O)[C@@H]5[C@@H](O)[C@@H](C)CN5C(=O)[C@H]([C@@H](C)O)NC(=O)[C@H]([C@H](O)[C@@H](O)c5ccc(O)cc5)NC(=O)[C@@H]5C[C@@H](O)CN5C(=O)[C@H]([C@@H](C)O)NC4=O)cc3)cc2)cc1 [Example 23] | 0.25 | 0.25 | 0.125 | 0.25 | 0.25 | 0.25 | 0.25 | – | – | – | – | – | –
CCCCCOc1ccc(-c2ccc(-c3ccc(C(=O)N[C@H]4C[C@@H](O)[C@@H](O[C@@H]5CC[N+](C)(C)C5)NC(=O)[C@@H]5[C@@H](O)[C@@H](C)CN5C(=O)[C@H]([C@@H](C)O)NC(=O)[C@H]([C@H](O)[C@@H](O)c5ccc(O)cc5)NC(=O)[C@@H]5C[C@@H](O)CN5C(=O)[C@H]([C@@H](C)O)NC4=O)cc3)cc2)cc1 [Example 25] | 0.125 | 0.25 | 0.25 | 0.25 | 0.125 | 0.25 | 0.25 | – | – | – | – | – | –
CCCCCNc1ccc(-c2ccc(-c3ccc(C(=O)N[C@H]4C[C@@H](O)[C@@H](OCC[N+](C)(C)C)NC(=O)[C@@H]5[C@@H](O)[C@@H](C)CN5C(=O)[C@H]([C@@H](C)O)NC(=O)[C@H]([C@H](O)[C@@H](O)c5ccc(O)cc5)NC(=O)[C@@H]5C[C@@H](O)CN5C(=O)[C@H]([C@@H](C)O)NC4=O)cc3)cc2)cc1 [Example 17] (X3-[Orn(4R-OH,5R-OCH2CH2NMe3+)]T[Hyp][hTyr(3S-OH,4S-OH)]T[Pro(3S-OH,4S-Me)]; lactam 1-C) | – | 0.25 | – | – | – | – | – | 0.25 | 0.25 | 0.25 | 0.25 | 0.5 | 0.5
CCCCCOc1ccc(-c2ccc(-c3ccc(C(=O)N[C@H]4C[C@@H](O)[C@@H](O[C@@H](C)C[N+](C)(C)C)NC(=O)[C@@H]5[C@@H](O)[C@@H](C)CN5C(=O)[C@H]([C@@H](C)O)NC(=O)[C@H]([C@H](O)[C@@H](O)c5ccc(O)cc5)NC(=O)[C@@H]5C[C@@H](O)CN5C(=O)[C@H]([C@@H](C)O)NC4=O)cc3)cc2)cc1 [Example 24] | – | 0.125 | 0.0625 | 0.25 | 0.25 | 0.25 | 0.5 | 0.125 | – | – | – | – | –
CCCCCCc1ccc(-c2ccc(-c3ccc(C(=O)N[C@H]4C[C@@H](O)[C@@H](OCC[N+](C)(C)C)NC(=O)[C@@H]5[C@@H](O)[C@@H](C)CN5C(=O)[C@H]([C@@H](C)O)NC(=O)[C@H]([C@H](O)[C@@H](O)c5ccc(O)cc5)NC(=O)[C@@H]5C[C@@H](O)CN5C(=O)[C@H]([C@@H](C)O)NC4=O)cc3)cc2)cc1 [Example 16] (X2-[Orn(4R-OH,5R-OCH2CH2NMe3+)]T[Hyp][hTyr(3S-OH,4S-OH)]T[Pro(3S-OH,4S-Me)]; lactam 1-C) | – | 0.25 | – | – | – | – | – | 0.25 | 0.25 | 0.25 | 0.5 | 0.25 | 0.25
